US10004701B2, “Methods and compositions for treating infection” (UNIVERSITY OF ROCHESTER, priority 2012, dated 2018)
Where a name gives a salt, the structure may show the parent alone. Read-outs that look alike come from different tables or passages of the source.

Tests used:
Experiment in all cases: AK assay 384-well format, Prestwick library screening
[1] = system: P. aeruginosa; format: cell-based, Pseudomonas aeruginosa; conditions: 50 μM final drug concentration; for fold induction at 50 µM: Pseudomonas aeruginosa, 3 h
[2] = system: K. pneumoniae; format: cell-based, Klebsiella pneumoniae; conditions: 50 μM final drug concentration; for fold induction at 50 µM: Klebsiella pneumoniae, 3 h
[3] = system: A. baumannii strain 98-37-09; format: cell-based, Acinetobacter baumannii; conditions: 50 μM final drug concentration; for fold induction at 50 µM: Acinetobacter baumannii, 983709, 3 h
[4] = system: S. aureus strain USA300-0114; format: cell-based, Staphylococcus aureus; conditions: 50 μM final drug concentration; for fold induction at 50 µM: Staphylococcus aureus, USA300, 3 h
[5] = system: E. faecium; format: cell-based, Enterococcus faecium; conditions: 50 μM final drug concentration; for fold induction at 50 µM: Enterococcus faecium, 3 h
[6] = system: E. coli; format: cell-based, Escherichia coli; conditions: 50 μM final drug concentration; for fold induction at 50 µM: Escherichia coli, 3 h
[7] = system: E. cloacae; format: cell-based, Enterobacter cloacae; conditions: 50 μM final drug concentration; for fold induction at 50 µM: Enterobacter cloacae, 3 h
[8] = planktonic, cutoff for positive 3-fold increase, read-out: AK-based Prestwick Library Screening Results, P. aeruginosa (fold increase in extracellular AK activity)
[9] = planktonic, cutoff for positive 3-fold increase, read-out: AK-based Prestwick Library Screening Results, K. pneumoniae (fold increase in extracellular AK activity)
[10] = planktonic, cutoff for positive 3-fold increase, read-out: AK-based Prestwick Library Screening Results, A. baumannii (fold increase in extracellular AK activity)
[11] = planktonic, cutoff for positive 3-fold increase, read-out: AK-based Prestwick Library Screening Results, S. aureus (fold increase in extracellular AK activity)
[12] = planktonic, cutoff for positive 3-fold increase, read-out: AK-based Prestwick Library Screening Results, E. faecium (fold increase in extracellular AK activity)
[13] = planktonic, cutoff for positive 3-fold increase, read-out: AK-based Prestwick Library Screening Results, E. coli (fold increase in extracellular AK activity)
[14] = planktonic, cutoff for positive 3-fold increase, read-out: AK-based Prestwick Library Screening Results, E. cloacae (fold increase in extracellular AK activity)
[15] = planktonic P. aeruginosa, […], read-out: AK-based Prestwick Library Screening Results, P. aeruginosa (increase in extracellular AK activity)
[16] = planktonic K. pneumoniae, […], read-out: AK-based Prestwick Library Screening Results, K. pneumoniae (increase in extracellular AK activity)
[17] = planktonic A. baumannii, […], read-out: AK-based Prestwick Library Screening Results, A. baumannii (increase in extracellular AK activity)
[18] = planktonic S. aureus, […], read-out: AK-based Prestwick Library Screening Results, S. aureus (increase in extracellular AK activity)
[19] = planktonic E. faecium, […], read-out: AK-based Prestwick Library Screening Results, E. faecium (increase in extracellular AK activity)
[20] = planktonic E. coli, […], read-out: AK-based Prestwick Library Screening Results, E. coli (increase in extracellular AK activity)
[21] = planktonic E. cloacae, […], read-out: AK-based Prestwick Library Screening Results, E. cloacae (increase in extracellular AK activity)

CC[C@H]1CN2CC[C@H]1C[C@H]2[C@H](O)c1ccnc2ccc(OC)cc12 [Hydroquinine hydrobromide hydrate]
fold induction at 50 µM [1, 8]: 1.2
fold induction at 50 µM [2, 9]: 1.3
fold induction at 50 µM [3, 10]: 1.2
fold induction at 50 µM [4, 11]: 1
fold induction at 50 µM [5, 12]: 1.1
fold induction at 50 µM [6, 13]: 1.2
fold induction at 50 µM [7, 14]: 1.6

Nc1ncnc2c1ncn2[C@@H]1O[C@H](COP(=O)(O)O)[C@@H](O)[C@H]1O [Adenosine 5′-monophosphate monohydrate]
fold induction at 50 µM [1, 15]: 0.8
fold induction at 50 µM [2, 16]: 0.6
fold induction at 50 µM [3, 17]: 0.7
fold induction at 50 µM [4, 18]: 0.6
fold induction at 50 µM [5, 19]: 0.8
fold induction at 50 µM [6, 20]: 0.8
fold induction at 50 µM [7, 21]: 1.2

CCNC1(c2cccs2)CCCCC1=O.Cl (stereo not drawn) [Tiletamine hydrochloride]
AK-based Prestwick library screening result, P. aeruginosa (fold increase in extracellular AK activity) ([1]; planktonic P. aeruginosa, […]): 1.1
AK-based Prestwick library screening result, K. pneumoniae (fold increase in extracellular AK activity) ([2]; planktonic K. pneumoniae, […]): 1.1
AK-based Prestwick library screening result, A. baumannii (fold increase in extracellular AK activity) ([3]; planktonic A. baumannii, […]): 1.6
AK-based Prestwick library screening result, S. aureus (fold increase in extracellular AK activity) ([4]; planktonic S. aureus, […]): 1.1
AK-based Prestwick library screening result, E. faecium (fold increase in extracellular AK activity) ([5]; planktonic E. faecium, […]): 1.0
AK-based Prestwick library screening result, E. coli (fold increase in extracellular AK activity) ([6]; planktonic E. coli, […]): 1.2
AK-based Prestwick library screening result, E. cloacae (fold increase in extracellular AK activity) ([7]; planktonic E. cloacae, […]): 1.4

CN[C@@H]1[C@H](O)[C@H](NC)[C@H]2O[C@@]3(O)C(=O)C[C@@H](C)O[C@H]3O[C@@H]2[C@H]1O [Spectinomycin dihydrochloride]
fold induction at 50 µM ([1]; planktonic, cutoff for positive-scoring molecules 3-fold increase, read-out: AK-based Prestwick Library Screening Results, P. aeruginosa (fold increase in extracellular AK activity)): 0.5
fold induction at 50 µM ([2]; planktonic, cutoff for positive-scoring molecules 3-fold increase, read-out: AK-based Prestwick Library Screening Results, K. pneumoniae (fold increase in extracellular AK activity)): 0.2
fold induction at 50 µM ([3]; planktonic, cutoff for positive-scoring molecules 3-fold increase, read-out: AK-based Prestwick Library Screening Results, A. baumannii (fold increase in extracellular AK activity)): 0.5
fold induction at 50 µM ([4]; planktonic, cutoff for positive-scoring molecules 3-fold increase, read-out: AK-based Prestwick Library Screening Results, S. aureus (fold increase in extracellular AK activity)): 0.6
fold induction at 50 µM ([5]; planktonic, cutoff for positive-scoring molecules 3-fold increase, read-out: AK-based Prestwick Library Screening Results, E. faecium (fold increase in extracellular AK activity)): 1
fold induction at 50 µM ([6]; planktonic, cutoff for positive-scoring molecules 3-fold increase, read-out: AK-based Prestwick Library Screening Results, E. coli (fold increase in extracellular AK activity)): 0.6
fold induction at 50 µM ([7]; planktonic, cutoff for positive-scoring molecules 3-fold increase, read-out: AK-based Prestwick Library Screening Results, E. cloacae (fold increase in extracellular AK activity)): 0.6

CCN1C[C@]2(COC)[C@H](O)C[C@H](OC)[C@@]34[C@@H]5C[C@@]6(O)[C@H](OC(=O)c7ccccc7)[C@@H]5[C@@](OC(C)=O)([C@@H]([C@H](OC)[C@H]23)[C@@H]14)[C@@H](O)[C@@H]6OC [Aconitine]
fold induction at 50 µM [1, 15]: 0.5
fold induction at 50 µM [2, 16]: 0.5
fold induction at 50 µM [3, 17]: 0.6
fold induction at 50 µM [4, 18]: 0.5
fold induction at 50 µM [5, 19]: 0.9
fold induction at 50 µM [6, 20]: 0.6
fold induction at 50 µM [7, 21]: 0.6

C[C@]12CC[C@H]3[C@@H](CC[C@]4(O)C[C@@H](O)CC[C@]34C=O)[C@@]1(O)CC[C@@H]2C1=CC(=O)OC1 [Strophanthidin]
fold induction at 50 µM ([1]; […], read-out: AK-based Prestwick Library Screening Results, P. aeruginosa (fold increase in extracellular AK activity)): 1.1
fold induction at 50 µM ([2]; […], read-out: AK-based Prestwick Library Screening Results, K. pneumoniae (fold increase in extracellular AK activity)): 1.1
fold induction at 50 µM ([3]; […], read-out: AK-based Prestwick Library Screening Results, A. baumannii (fold increase in extracellular AK activity)): 1.3
fold induction at 50 µM ([4]; […], read-out: AK-based Prestwick Library Screening Results, S. aureus (fold increase in extracellular AK activity)): 1.3
fold induction at 50 µM ([5]; […], read-out: AK-based Prestwick Library Screening Results, E. faecium (fold increase in extracellular AK activity)): 1
fold induction at 50 µM ([6]; […], read-out: AK-based Prestwick Library Screening Results, E. coli (fold increase in extracellular AK activity)): 1.4
fold induction at 50 µM ([7]; […], read-out: AK-based Prestwick Library Screening Results, E. cloacae (fold increase in extracellular AK activity)): 1.3

[H]/N=C(\N/C(=N/[H])Nc1ccc(Cl)cc1)NC(C)C [Proguanil hydrochloride]
fold induction at 50 µM ([1]; planktonic P. aeruginosa, positive cutoff 3-fold increase, read-out: AK-based Prestwick library screening result, P. aeruginosa (fold increase in extracellular AK activity)): 0.8
fold induction at 50 µM ([2]; planktonic K. pneumoniae, positive cutoff 3-fold increase, read-out: AK-based Prestwick library screening result, K. pneumoniae (fold increase in extracellular AK activity)): 0.7
fold induction at 50 µM ([3]; planktonic A. baumannii, positive cutoff 3-fold increase, read-out: AK-based Prestwick library screening result, A. baumannii (fold increase in extracellular AK activity)): 0.9
fold induction at 50 µM ([4]; planktonic S. aureus, positive cutoff 3-fold increase, read-out: AK-based Prestwick library screening result, S. aureus (fold increase in extracellular AK activity)): 0.9
fold induction at 50 µM ([5]; planktonic E. faecium, positive cutoff 3-fold increase, read-out: AK-based Prestwick library screening result, E. faecium (fold increase in extracellular AK activity)): 0.8
fold induction at 50 µM ([6]; planktonic E. coli, positive cutoff 3-fold increase, read-out: AK-based Prestwick library screening result, E. coli (fold increase in extracellular AK activity)): 0.9
fold induction at 50 µM ([7]; planktonic E. cloacae, positive cutoff 3-fold increase, read-out: AK-based Prestwick library screening result, E. cloacae (fold increase in extracellular AK activity)): 1.1

CC1=C(C(=O)O)N2C(=O)[C@@H](NC(=O)[C@H](N)c3ccccc3)[C@H]2SC1 [Cephalexin monohydrate]
fold induction at 50 µM ([1]; planktonic P. aeruginosa, cutoff for positive-scoring molecules 3-fold increase, read-out: AK-based Prestwick Library Screening Results, P. aeruginosa (increase in extracellular AK activity)): 0.8
fold induction at 50 µM ([2]; planktonic K. pneumoniae, cutoff for positive-scoring molecules 3-fold increase, read-out: AK-based Prestwick Library Screening Results, K. pneumoniae (increase in extracellular AK activity)): 0.7
fold induction at 50 µM ([3]; planktonic A. baumannii, cutoff for positive-scoring molecules 3-fold increase, read-out: AK-based Prestwick Library Screening Results, A. baumannii (increase in extracellular AK activity)): 0.9
fold induction at 50 µM ([4]; planktonic S. aureus, cutoff for positive-scoring molecules 3-fold increase, read-out: AK-based Prestwick Library Screening Results, S. aureus (increase in extracellular AK activity)): 0.7
fold induction at 50 µM ([5]; planktonic E. faecium, cutoff for positive-scoring molecules 3-fold increase, read-out: AK-based Prestwick Library Screening Results, E. faecium (increase in extracellular AK activity)): 0.9
fold induction at 50 µM ([6]; planktonic E. coli, cutoff for positive-scoring molecules 3-fold increase, read-out: AK-based Prestwick Library Screening Results, E. coli (increase in extracellular AK activity)): 0.8
fold induction at 50 µM ([7]; planktonic E. cloacae, cutoff for positive-scoring molecules 3-fold increase, read-out: AK-based Prestwick Library Screening Results, E. cloacae (increase in extracellular AK activity)): 1.4

COc1ccc(OC)c(C(O)C(C)N)c1 (stereo not drawn) [Methoxamine hydrochloride]
fold induction at 50 µM [1, 8]: 1.2
fold induction at 50 µM [2, 9]: 1
fold induction at 50 µM [3, 10]: 1
fold induction at 50 µM [4, 11]: 0.9
fold induction at 50 µM [5, 12]: 1
fold induction at 50 µM [6, 13]: 1.1
fold induction at 50 µM [7, 14]: 1.4
